Target: T1, androgen receptor (AR) (Homo sapiens, UniProt P10275, T878A)
T1 construct: LNCaP cells expressing ARR2PB-FireflyLuc and CMV-RenillaLuc; endogenous in cells; host or cells: LNCaP cells carrying ARR2PB-FireflyLuc and CMV-RenillaLuc reporters
T1 sequence (P10275 1-920 T878A): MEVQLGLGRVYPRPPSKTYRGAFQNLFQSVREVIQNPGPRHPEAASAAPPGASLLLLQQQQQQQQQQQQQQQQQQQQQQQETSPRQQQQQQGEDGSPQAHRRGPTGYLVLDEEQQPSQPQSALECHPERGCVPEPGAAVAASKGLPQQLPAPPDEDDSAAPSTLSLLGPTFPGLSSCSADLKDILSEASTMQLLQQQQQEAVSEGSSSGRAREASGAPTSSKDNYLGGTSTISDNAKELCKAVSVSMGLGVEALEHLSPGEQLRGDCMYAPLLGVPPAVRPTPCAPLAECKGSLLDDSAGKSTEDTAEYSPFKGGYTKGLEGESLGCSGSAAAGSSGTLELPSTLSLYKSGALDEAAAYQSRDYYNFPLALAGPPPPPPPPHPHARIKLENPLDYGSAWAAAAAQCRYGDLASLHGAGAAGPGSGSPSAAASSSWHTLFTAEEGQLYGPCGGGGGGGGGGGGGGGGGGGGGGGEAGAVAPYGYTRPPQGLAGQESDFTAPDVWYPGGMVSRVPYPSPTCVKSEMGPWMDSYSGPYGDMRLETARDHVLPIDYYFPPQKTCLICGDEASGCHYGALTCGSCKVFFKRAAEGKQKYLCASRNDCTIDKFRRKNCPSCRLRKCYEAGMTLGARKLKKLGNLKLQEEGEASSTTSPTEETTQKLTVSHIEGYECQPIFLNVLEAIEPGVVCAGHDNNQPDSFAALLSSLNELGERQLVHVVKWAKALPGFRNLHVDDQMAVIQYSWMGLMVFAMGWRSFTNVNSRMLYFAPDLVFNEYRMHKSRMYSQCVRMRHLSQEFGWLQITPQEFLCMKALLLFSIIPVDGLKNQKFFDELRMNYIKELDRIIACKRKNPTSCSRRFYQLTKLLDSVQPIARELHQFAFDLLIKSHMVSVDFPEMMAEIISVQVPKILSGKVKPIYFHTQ
Experiment: AR reporter assay in LNCaP cells expressing ARR2PB-FireflyLuc and CMV-RenillaLuc, antagonist mode (% remaining activity, IC50)
Assay type: cell-based
Conditions: 48 h at 37° C., class symbols A-D, read-out: IC50
Method: LNCaP cells expressing ARR2PB-FireflyLuc and CMV-RenillaLuc were treated with indicated concentrations of test compounds, enzalutamide (negative control), or DHT (positive control)+/−0.5 nM DHT for 48 h at 37° C. […] Remaining activity (antagonist mode) was calculated as % Remaining Activity=100×[(Readsample−LCave)/(HCave−LCave)] where HC is cells treated with 0.5 nM DHT only and LC is cells treated with 10 uM enzalutamide+0.5 nM DHT. Activation (agonist mode) was calculated as % Activation=100×[(ReadSample−LCave)/(HCave−LCave)] where HC is cells treated with 1 uM DHT and LC is cells treated with DMSO. Dose response curves and IC50 values were calculated using non-linear regression analysis in XLfit.
The designation “A” indicates an IC50 value of >10 μM, “B” indicates an IC50 value between 1 μM and 10 μM; “C” indicates an IC50 value between 100 nM and 1 μM; and “D” indicates an IC50 value of less than 100 nM.

| SMILES | IC50 [nM] |
| --- | --- |
| CC(=O)N1CCC(Oc2ncc(-c3c[nH]c4c(C#N)cccc34)nc2C)C1 (stereo not shown) [Compound 194] | 100 to 1000 |
| COC(C)CNc1ccc(-c2c[nH]c3c(C#N)cccc23)nc1C (stereo not shown) [Compound 195] | 100 to 1000 |
| Cc1nc(-c2c[nH]c3c(C#N)cccc23)ccc1NCCN(C)C [Compound 196] | 1000 to 10000 |
| Cc1nc(-c2c[nH]c3c(C#N)cccc23)ccc1NCC(=O)N(C)C [Compound 197] | > 10000 |
| Cc1nc(-c2c[nH]c3c(C(F)(F)F)cccc23)cnc1OC1CCNC1 (stereo not shown) [Compound 198] | 100 to 1000 |
| Cc1nc(-c2c[nH]c3c(C#N)cccc23)ccc1OC1CCNC1=O (stereo not shown) [Compound 199] | 1000 to 10000 |
| Fc1ccc(-c2c[nH]c3cnccc23)nc1 [Compound 200] | > 10000 |
| Fc1ccc(-c2c[nH]c3cccnc23)nc1 [Compound 201] | 1000 to 10000 |
| Fc1ccc(-c2c[nH]c3cc(F)cnc23)nc1 [Compound 202] | 100 to 1000 |
| Cc1ccc2c(-c3ccc(F)cc3)c[nH]c2n1 [Compound 203] | 1000 to 10000 |
| N#Cc1cc(F)cc2c(-c3ccc4ccc(F)cc4n3)c[nH]c12 [Compound 204] | 100 to 1000 |
| CC1NC(=O)c2ccc(-c3c[nH]c4c(C#N)cccc34)nc21 (stereo not shown) [Compound 205] | 100 to 1000 |
| CC1(C)NC(=O)c2ccc(-c3c[nH]c4c(C#N)cccc34)nc21 [Compound 206] | 100 to 1000 |
| Cc1nc(-c2c[nH]c3c(Cl)cccc23)ccc1N [Compound 207] | 100 to 1000 |
| Cc1nc(-c2c[nH]c3c(S(C)(=O)=O)cccc23)ccc1N [Compound 208] | > 10000 |
| Nc1ccc(-c2c[nH]c3cc(F)c(F)cc23)nc1Cl [Compound 209] | 100 to 1000 |
| Cc1nc(-c2c[nH]c3c(C#N)c(F)ccc23)ccc1N [Compound 210] | < 100 |
| COc1ccc2c(-c3ccc(N)c(C)n3)c[nH]c2c1C#N [Compound 211] | > 10000 |
| Cc1cncc(-c2c[nH]c3c(Cl)cccc23)n1 [Compound 212] | < 100 |

| SMILES | IC50 [nM] |
| --- | --- |
| N#Cc1cccc2c(-c3cncc(N4CCC4)n3)c[nH]c12 [Compound 213] | 100 to 1000 |
| CCc1nc(-c2c[nH]c3c(C#N)cccc23)cnc1N [Compound 214] | 100 to 1000 |
| COc1cncc(-c2c[nH]c3c(C#N)cccc23)n1 [Compound 215] | < 100 |
| CC1(C)NC(=O)c2ccc(-c3c[nH]c4cc(F)ccc34)nc21 [Compound 216] | 100 to 1000 |
| CN1C(=O)c2ccc(-c3c[nH]c4c(Cl)cccc34)nc2C1(C)C [Compound 217] | 100 to 1000 |
| CC1(C)NC(=O)c2ccc(-c3c[nH]c4c(Cl)cccc34)nc21 [Compound 218] | 100 to 1000 |
| Cc1nc(-c2c[nH]c3c(C#N)cccc23)ccc1NCC(C)(C)O [Compound 219] | 100 to 1000 |
| Cc1nc(-c2c[nH]c3c(C#N)cccc23)ccc1NCCN [Compound 220] | 100 to 1000 |
| COCC(C)Nc1ccc(-c2c[nH]c3c(C#N)cccc23)nc1C (stereo not shown) [Compound 221] | 100 to 1000 |
| N#Cc1cccc2c(-c3cnc(OC4CCNC4)cn3)c[nH]c12 (stereo not shown) [Compound 222] | 1000 to 10000 |
| Cc1nc(-c2c[nH]c3c(C#N)cccc23)cnc1OC1CC2CCC1N2 (stereo not shown) [Compound 223] | 1000 to 10000 |
| Cc1nc(-c2c[nH]c3c(C#N)cccc23)cnc1OC1C2CNCC21 (stereo not shown) [Compound 224] | 1000 to 10000 |
| Cc1nc(OC2C3CNCC32)cnc1-c1c[nH]c2c(C#N)cccc12 (stereo not shown) [Compound 225] | > 10000 |
| N#Cc1cccc2c(-c3cnc(NC4CCNC4)c(OC(F)F)n3)c[nH]c12 (stereo not shown) [Compound 226] | 100 to 1000 |
| Cc1nc(-c2c[nH]c3c(C#N)cccc23)cnc1N1CCC(N)C1 (stereo not shown) [Compound 227] | > 10000 |
| COCC(COC)Nc1ncc(-c2c[nH]c3c(C#N)cccc23)nc1C [Compound 228] | > 10000 |
| N#Cc1cccc2c(-c3ccc(OC4CCNC4)c(F)c3)c[nH]c12 (stereo not shown) [Compound 229] | 100 to 1000 |
| Cc1nc(-c2c[nH]c3c(C#N)cccc23)ccc1OC1CCNC1 (stereo not shown) [Compound 230] | 100 to 1000 |
